Entries after “also recorded” stand apart in the source; their conditions may differ. Where a name gives a salt, the structure may show the parent alone.
Experiments:
4T1 cells [1] = assay: Monolayer growth inhibition, Alamar blue assay; assay type: cell-based; details: Mus musculus; 4T1 (TNBC), 5 days, single dose on day 1
Source text: (§1) In all instances a single dose was given on day 1 of the experiment.

HCC1143 cells [2] = assay: Monolayer growth inhibition, Alamar blue assay; assay type: cell-based; details: Homo sapiens; HCC1143 (TNBC), 5 days, single dose on day 1
Source text: as §1

HCC1937 cells [3] = assay: Monolayer growth inhibition, Alamar blue assay; assay type: cell-based; details: Homo sapiens; HCC1937 (TNBC, BRCA Mutant), 5 days, single dose on day 1
Source text: as §1

JIMT-1 cells [4] = assay: Monolayer growth inhibition, Alamar blue assay; assay type: cell-based; details: Homo sapiens; JIMT-1 (HER2), 5 days, single dose on day 1
Source text: as §1

MDA-MB-231 cells [5] = assay: Monolayer growth inhibition, Alamar blue assay; assay type: cell-based; details: Homo sapiens; MDA-MB-231 (TNBC), 5 days, single dose on day 1
Source text: as §1

MDA-MB-435 cells [6] = assay: Monolayer growth inhibition, Alamar blue assay; assay type: cell-based; details: Homo sapiens; MDA-MB-435 (Melanoma), 5 days, single dose on day 1
Source text: as §1

MDA-MB-468 cells [7] = assay: Monolayer growth inhibition, Alamar blue assay; assay type: cell-based; details: Homo sapiens; MDA-MB-468 (TNBC), 5 days, single dose on day 1
Source text: as §1

PC3 cells [8] = assay: Monolayer growth inhibition, Alamar blue assay; assay type: cell-based; details: Homo sapiens, PC-3; PC3 (Prostate), 5 days, single dose on day 1
Source text: as §1

SUM149 cells [9] = assay: Monolayer growth inhibition, Alamar blue assay; assay type: cell-based; details: Homo sapiens; SUM149 (TNBC, BRCA Mutant), 5 days, single dose on day 1
Source text: as §1

SUM149-PTXR cells [10] = assay: Monolayer growth inhibition, Alamar blue assay; assay type: cell-based, Human; details: Homo sapiens; SUM149-PTXR (TNBC, BRCA Mutant), 5 days, single dose on day 1
Source text: as §1

T47D cells [11] = assay: Monolayer growth inhibition, Alamar blue assay; assay type: cell-based, Human; details: Homo sapiens; T47D (ER/PR), 5 days, single dose on day 1
Source text: as §1

All cell lines [12] = assay: Monolayer growth inhibition, Alamar blue assay, range over all cell lines; assay type: cell-based; details: 120 h; range of IC50 over all cell lines of the table; read-out: IC50 Values - Alamar Blue (5 Days), Range, All
Source text: as §1

HCC1937 cells [13] = assay: Monolayer growth inhibition, crystal violet assay; assay type: cell-based; details: Homo sapiens; HCC1937 (TNBC, BRCA Mutant), 5 days, single dose on day 1
Source text: (§2) In all instances a single dose was given on day 1 of the experiment. […] Complete (100%) growth suppression was achievable with several of the compounds in multiple different cell lines.

JIMT-1 cells [14] = assay: Monolayer growth inhibition, crystal violet assay; assay type: cell-based; details: Homo sapiens; JIMT-1 (HER2), 5 days, single dose on day 1
Source text: as §2

MDA-MB-468 cells [15] = assay: Monolayer growth inhibition, crystal violet assay; assay type: cell-based; details: Homo sapiens; MDA-MB-468 (TNBC), 5 days, single dose on day 1
Source text: as §2

T47D cells [16] = assay: Monolayer growth inhibition, crystal violet assay; assay type: cell-based; details: Homo sapiens; T47D (ER/PR), 5 days, single dose on day 1
Source text: as §2

4T1 cells [17] = assay: Monolayer growth inhibition, crystal violet assay; assay type: cell-based; details: Mus musculus; 4T1 (TNBC), 5 days, single dose on day 1
Source text: as §1

HCC1143 cells [18] = assay: Monolayer growth inhibition, crystal violet assay; assay type: cell-based; details: Homo sapiens; HCC1143 (TNBC), 5 days, single dose on day 1
Source text: as §1

MDA-MB-231 cells [19] = assay: Monolayer growth inhibition, crystal violet assay; assay type: cell-based; details: Homo sapiens; MDA-MB-231 (TNBC), 5 days, single dose on day 1
Source text: as §1

MDA-MB-435 cells [20] = assay: Monolayer growth inhibition, crystal violet assay; assay type: cell-based; details: Homo sapiens; MDA-MB-435 (Melanoma), 5 days, single dose on day 1
Source text: as §1

PC3 cells [21] = assay: Monolayer growth inhibition, crystal violet assay; assay type: cell-based; details: Homo sapiens, PC-3; PC3 (Prostate), 5 days, single dose on day 1
Source text: as §1

SUM149 cells [22] = assay: Monolayer growth inhibition, crystal violet assay; assay type: cell-based; details: Homo sapiens; SUM149 (TNBC, BRCA Mutant), 5 days, single dose on day 1
Source text: as §1

SUM149-PTXR cells [23] = assay: Monolayer growth inhibition, crystal violet assay; assay type: cell-based; details: Homo sapiens; SUM149-PTXR (TNBC, BRCA Mutant), 5 days, single dose on day 1
Source text: as §1

All cell lines [24] = assay: Monolayer growth inhibition, crystal violet assay, range over all cell lines; assay type: cell-based; details: 120 h; range of IC50 over all cell lines of the table; read-out: IC50 Values - Crystal Violet (5 Days), Range, All
Source text: as §2

MDA-MB-231 cells [25] = assay: Soft agar growth inhibition assay; assay type: cell-based; details: Homo sapiens
MDA-MB-468 cells [26] = assay: Soft agar growth inhibition assay; assay type: cell-based, Human; details: Homo sapiens; MDA-MB-468 (TNBC), 14-22 days
4T1 cells [27] = assay: Soft agar growth inhibition assay; assay type: cell-based; details: Mus musculus
MDA-MB-231 cells [28] = assay: Immuno-oncology gene expression (HLA-DRA, CIITA, CD274 mRNA); assay type: cell-based, Human; details: Compound 16 2 or 4 uM, Compound 18 1, 2, or 4 uM
Source text: A key feature of cancer is low immunogenicity. This can occur by several mechanisms that allow the cells to escape immune recognition. […] HLA-DRA is a member of MHC-II genes and CIITA is the master regulator of MHC II transcription. Thus it was surprising that CIITA, which would be expected to regulate MHC II gene expression, was not altered by RSK inhibition. […] HLA-DRA is important for immune recognition while PD-L1 is involved in immune checkpoints.

CD34+ cells = assay: Colony forming unit hematopoietic stem cell assay; assay type: cell-based, human; details: for IC50: Homo sapiens, Hematopoietic stem cell, CD34+ cells from peripheral blood, read-out: CD34+ (PB) IC50; for Therapeutic Window: ratio IC50 against CD34+ cells and MDA-MB-231 cells (SA)
[29] = test system: phosphorylated Y-box binding protein-1 (YB-1) at serine 102 (P-YB-1S102); assay: Immunoblotting of cell signalling, loss of P-YB-1 in MDA-MB-231 cells; details: MDA-MB-231 cells, 0.01-1 uM, 96 hrs
Experimental: Following desired experimental conditions, breast cancer cell lines grown and treated in 6 well plates or 100 mm culture dishes (Grenier Bio-One) were placed on ice and the supernatant from each well was removed and the cells were washed in cold PBS. Following removal of PBS, cells were exposed to radioimmunoprecipitation assay (RIPA) buffer (50 mM Tris-HCl (pH 8), 150 mM NaCl, 1% NP-40, 0.5% sodium deoxycholate, 0.1% SDS; Fisher Scientific) supplemented with 1% phosphatase inhibitor (Fisher Scientific) and 1% protease inhibitor (Fisher Scientific) for 10 minutes. Samples were transferred to eppendorf tubes, vortexed and then centrifuged at 14 000 rpm for 10 minutes. Supernatants were collected as whole cell lysates.
To begin, the protein content of the lysates was measured using the Bicinchoninic Acid (BCA) Protein Assay Kit (Pierce), which included a protein standard curve generated with bovine serum albumin. Appropriate volumes of samples and loading buffer (50 mM Tris-HCl (pH 6.8), 2% SDS, 10% glycerol, 1% j-mercaptoethanol, 12.5 mM EDTA, 0.02% bromophenol blue) were mixed, ensuring that equal amounts of protein were loaded. For the majority of experiments in this study, 30 μg of protein per well was loaded. Samples were then resolved on SDS-PAGE (polyacrylamide gel electrophoresis) using various percentages of acrylamide gels (8%-12%), depending on the proteins of interest. SDS-PAGE was run in SDS running buffer (25 mM Tris, 192 mM glycine, 0.1% SDS) and then transferred to nitrocellulose membranes (Bio-Rad) in transfer buffer (48 mM Tris, 39 mM glycine, 20% (v/v) methanol) at 100 volts for 90 minutes at room temperature. Immunoblots were then blocked in 5% skim milk in tris-buffered saline with 0.1% Tween-20 (TBS-T; 50 mM Tris-HCl, pH 7.5, 150 mM NaCl, 0.1% (v/v) Tween-20 (Fisher Scientific)) for 1 to 2 hours. Immunoblots were then incubated with selected primary antibodies diluted in TBS-T with 0.1% gelatin (Bio-Rad) and 0.05% sodium azide (Alfa Aesar) overnight. Following washes with TBT-T 4 times for 8 to 10 minutes, immunoblots were incubated with appropriate secondary antibodies conjugated to horseradish peroxidise (Cell Signalling Technology) diluted in TBS-T plus 5% skim milk at a ratio of 1:5000 for 2 hours at room temperature. After an additional round of washes in TBS-T, immunoblots were exposed to combined enhanced chemiluminescence (ECL) reagents (Fisher Scientific) for 1 minute and developed using ChemiDoc MP Imaging System (Bio-Rad). For certain immunoblots, bands of proteins of interest were scanned and band intensity ratios were determined by densitometric analysis (ImageJ). […] Total YB-1 was used as a loading control (1:5000 Abcam). […] To assess whether cells are actively undergoing cell death, the activity of poly ADP ribose polymerase (PARP) (1:1000 CST) was also measured using the immunoblotting method.

[30] = Solubility assessment, 20 mg/ml solution; assay type: physicochemical; details: hydrochloride salt
Outline: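 Compounds from 100 mM DMSO stocks diluted to 20 mg/ml in DMEM with FBS and penicillin/streptomycin, vortexed and checked visually for precipitate. One compound instead diluted to 20 mg/ml in phosphate-buffered saline, solution pH 2.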

[31] = test system: P-YB-1 in MDA-MB-231 xenografts; assay: Pharmacodynamics, P-YB-1 signalling in MDA-MB-231 xenograft tumors (immunoblotting); details: 100 mg/kg BID PO for three days
Experimental: Following desired experimental conditions, breast cancer cell lines grown and treated in 6 well plates or 100 mm culture dishes (Grenier Bio-One) were placed on ice and the supernatant from each well was removed and the cells were washed in cold PBS. Following removal of PBS, cells were exposed to radioimmunoprecipitation assay (RIPA) buffer (50 mM Tris-HCl (pH 8), 150 mM NaCl, 1% NP-40, 0.5% sodium deoxycholate, 0.1% SDS; Fisher Scientific) supplemented with 1% phosphatase inhibitor (Fisher Scientific) and 1% protease inhibitor (Fisher Scientific) for 10 minutes. Samples were transferred to eppendorf tubes, vortexed and then centrifuged at 14 000 rpm for 10 minutes. Supernatants were collected as whole cell lysates. For mouse tumour tissues, each sample was place in a 35 mm culture dish with complete RIPA lysis buffer. […]
To begin, the protein content of the lysates was measured using the Bicinchoninic Acid (BCA) Protein Assay Kit (Pierce), which included a protein standard curve generated with bovine serum albumin. […] For certain immunoblots, bands of proteins of interest were scanned and band intensity ratios were determined by densitometric analysis (ImageJ). […] To assess whether cells are actively undergoing cell death, the activity of poly ADP ribose polymerase (PARP) (1:1000 CST) was also measured using the immunoblotting method.
Cell signalling was evaluated by immunoblotting. […]

[32] = MDA-MB-231, growth in soft agar (SA), read-out: MDA-MB-231 IC50 (SA)
[33] = MDA-MB-231 (TNBC), 14-22 days, read-out: IC50 Values - Soft Agar (14-22 Days)

Structure (SMILES) | IC50 (HCC1143 cells [2]) | IC50 (HCC1937 cells [3]) | IC50 (JIMT-1 cells [4]) | IC50 (MDA-MB-435 cells [6]) | IC50 (PC3 cells [8]) | IC50 (SUM149 cells [9]) | IC50 (SUM149-PTXR cells [10]) | IC50 (T47D cells [11]) | IC50 (HCC1937 cells [13]) | IC50 (JIMT-1 cells [14]) | IC50 (MDA-MB-468 cells [15]) | IC50 (T47D cells [16]) | IC50 (MDA-MB-231 cells [25]; [32]) | IC50 (MDA-MB-231 cells [25]; [33]) | IC50 (CD34+ cells) | other results
C[C@@H]1CNC(=O)c2cc3ccc(C(=O)Nc4cnn(Cc5cccc(N)c5)c4)nc3n21 [Compound 16, (R)—N-(1-(3-aminobenzyl)-1H-pyrazol-4-yl)-9-methyl-6-oxo-6,7,8,9-tetrahydropyrido[3′,2′:4,5]pyrrolo[1,2-a]pyrazine-2-carboxamide] | 7 ± 3 µM | 17.4 ± 3 µM | 16.3 ± 1 µM | 0.9 ± 0.5 µM | 6.6 ± 2.3 µM | 3.4 ± 1.8 µM | 2.5 ± 0.4 µM | 4.7 ± 1.7 µM | 12 ± 5.3 µM | 13.3 ± 2.4 µM | 1.9 ± 0.3 µM | 3.8 ± 0.7 µM | 0.2 µM | 0.2 ± 0.1 µM | > 20 µM | IC50 (4T1 cells [1]): 5.4 ± 0.9 µM; IC50 (MDA-MB-231 cells [5]): 8.7 ± 1.8 µM; IC50 (MDA-MB-468 cells [7]): 2.7 ± 0.5 µM; IC50 (All cell lines [12]): 0.9 to 17.4 µM; IC50 (4T1 cells [17]): 4.5 ± 0.8 µM; IC50 (HCC1143 cells [18]): 5 ± 1.1 µM; IC50 (MDA-MB-231 cells [19]): 2.7 ± 1.3 µM; IC50 (MDA-MB-435 cells [20]): 1.2 ± 0.6 µM; IC50 (PC3 cells [21]): 3.7 ± 1.3 µM; IC50 (SUM149 cells [22]): 2.8 ± 0.9 µM; IC50 (SUM149-PTXR cells [23]): 3.5 ± 1.2 µM; IC50 (All cell lines [24]): 1.2 to 13.3 µM; IC50 (MDA-MB-468 cells [26]): 1.1 ± 0.3 µM; IC50 (4T1 cells [27]; 240 h, 4T1, 10 days, read-out: IC50 Values, 10 Days, Soft Agar): 3.3 µM; IC50 (4T1 cells [27]; 4T1 (TNBC), 14-22 days, read-out: IC50 Values - Soft Agar (14-22 Days)): 3.5 ± 0.3 µM; CD274 (gene encoding PD-L1) levels (MDA-MB-231 cells [28]): reduced levels of CD274; HLA-DRA mRNA (MDA-MB-231 cells [28]): elevated levels of HLA-DRA mRNA; mRNA expression of CIITA (MDA-MB-231 cells [28]): little effect; Therapeutic Window (CD34+ cells): >100X; Loss of P-YB-1 [29]: dose dependent loss of P-YB-1
C[C@@H]1CNC(=O)c2cc3ccc(C(=O)Nc4cnn(Cc5ccc(N)cc5)c4)nc3n21 [Compound 25, (R)—N-(1-(4-aminobenzyl)-1H-pyrazol-4-yl)-9-methyl-6-oxo-6,7,8,9-tetrahydropyrido[3′,2′:4,5]pyrrolo[1,2-a]pyrazine-2-carboxamide hydrochloride salt] | 5.1 ± 0.3 µM | 13.7 ± 3.8 µM | 19.9 ± 6.5 µM | 0.9 ± 0.1 µM | 8.5 ± 0.8 µM | 10.4 ± 3.5 µM | 5.2 ± 4.2 µM | 8.9 ± 0.8 µM | 8.4 ± 1.9 µM | 15.2 ± 2.6 µM | 2 ± 0.4 µM | 3.1 ± 0.1 µM | 0.2 µM | 0.2 ± 0.1 µM | > 20 µM | Solubility, 20 mg/ml Solution ([30]; 100 mM in DMSO diluted in DMEM growth media to 20 mg/ml): Soluble; also recorded: superior solubility; pH of 20 mg/ml solution ([30]; DMSO stock diluted in DMEM, pH test strips): 2; Therapeutic Window (CD34+ cells; hydrochloride salt): >100X; Tumors with reduced cell signaling through loss of P-YB-1 [31]: 3/3

— patent US10081632B2, “Substituted tetrahydropyrido[3′,2′:4,5]pyrrolo[1,2-α]pyrazine-2-carboxamides as RSK inhibitors” (Phoenix Molecular Designs, priority 2016, dated 2018)
